Laboratory results from patent US10766869B2, “Triazoles for the treatment of demyelinating dieases” (Vertex Pharmaceuticals Incorporated, priority 2015, dated 2020).
Like-named read-outs stand apart in the source and are kept apart here.

Test system: primary rat mixed cortical cells
Assay: In vitro myelination assay (MBP positive myelin strands, fold myelin pixels above background)
Format: cell-based
Settings: Rattus norvegicus; for fold induction at 1 µM: 1.0 μM compound; for fold induction at 10 µM: 10.0 μM compound
Summary of the method: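 Myelination read as total MBP-immunopositive strand pixels per well, imaged at 10× after fixation on day 14 and expressed relative to untreated wells, at 1.0 and 10.0 μM. Cells: dissociated postnatal day 1 rat cortex, cultured two weeks with compound, re-dosed at days 6 and 10.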

[1] = relative to baseline of no added compound, read-out: Fold myelin pixels above background
[2] = relative to baseline of no added compound, read-out: Fold myelin pixels above background, 1.0 μM
[3] = relative to baseline of no added compound, read-out: Fold myelin pixels above background, 10.0 μM
[4] = read-out: Fold myelin pixels above background relative to baseline of no added compound

SMILES	fold induction at 1 µM [1]	fold induction at 10 µM [1]	fold induction at 1 µM [2]	fold induction at 10 µM [3]	further results
Fc1cc(Nc2ncn(-c3ccc(F)cc3F)n2)cc(N2CCCC2)c1 [Compound 497, 1-(2,4-difluorophenyl)-N-(3-fluoro-5-pyrrolidin-1-yl-phenyl)-1,2,4-triazol-3-amine]	≤ 1	≤ 1	–	–	–
Cc1cc(Nc2ncn(-c3cc(F)cc(F)c3)n2)cc(N2CC(N3CCCC3)C2)c1 [Compound 510, 1-(3,5-difluorophenyl)-N-[3-methyl-5-(3-pyrrolidin-1-ylazetidin-1-yl)phenyl]-1,2,4-triazol-3-amine]	1 to 10	10 to 100	–	–	–
CC(C)(C)c1cc(Nc2ncn(-c3cc(F)cc(F)c3)n2)cc(N2CCN(C3COC3)CC2)c1 [Compound 17, N-[3-tert-butyl-5-[4-(oxetan-3-yl)piperazin-1-yl]phenyl]-1-(3,5-difluorophenyl)-1,2,4-triazol-3-amine]	–	–	100 to 1000	≤ 1	–
FC(F)(F)c1cc(Nc2ncn(-c3cccnc3)n2)nc(N2CCN(C3COC3)CC2)c1 [Compound 684, 6-[4-(oxetan-3-yl)piperazin-1-yl]-N-[1-(3-pyridyl)-1,2,4-triazol-3-yl]-4-(trifluoromethyl)pyridin-2-amine]	10 to 100	10 to 100	–	–	–
CCC(CO)N1CCN(c2cc(C)cc(Nc3ncn(-c4cc(F)cc(F)c4)n3)c2)CC1 (stereo not drawn) [Compound 904, 2-[4-[3-[[1-(3,5-difluorophenyl)-1,2,4-triazol-3-yl]amino]-5-methyl-phenyl]piperazin-1-yl]butan-1-ol]	–	–	–	–	fold induction at 1 µM [4]: ≤ 1; fold induction at 10 µM [4]: ≤ 1
FC(F)c1cc(Nc2ncn(-c3cnccn3)n2)nc(N2CCN(C3COC3)CC2)c1 [Compound 576, 4-(difluoromethyl)-6-[4-(oxetan-3-yl)piperazin-1-yl]-N-(1-pyrazin-2-yl-1,2,4-triazol-3-yl)pyridin-2-amine]	10 to 100	10 to 100	–	–	–
COCCN1CCC(Nc2cc(C)cc(Nc3ncn(-c4cc(F)cc(F)c4)n3)c2)CC1 [Compound 930, N3-[1-(3,5-difluorophenyl)-1,2,4-triazol-3-yl]-N1-[1-(2-methoxyethyl)-4-piperidyl]-5-methyl-benzene-1,3-diamine]	–	–	–	–	fold induction at 1 µM [4]: 10 to 100; fold induction at 10 µM [4]: ≤ 1
CCN(CC)C(=O)C1CN(c2cc(C)cc(Nc3ncn(-c4cc(F)cc(F)c4)n3)c2)C1 [Compound 817, 1-[3-[[1-(3,5-difluorophenyl)-1,2,4-triazol-3-yl]amino]-5-methyl-phenyl]-N,N-diethyl-azetidine-3-carboxamide]	–	–	–	–	fold induction at 1 µM [4]: 10 to 100; fold induction at 10 µM [4]: 10 to 100
CCc1cc(Nc2ncn(-c3ccc(C(F)(F)F)cc3)n2)cc(N2CCN(C3COC3)CC2)c1 [Compound 322, N-[3-ethyl-5-[4-(oxetan-3-yl)piperazin-1-yl]phenyl]-1-[4-(trifluoromethyl)phenyl]-1,2,4-triazol-3-amine]	–	–	1 to 10	1 to 10	–
Cc1cc(Nc2ncn(-c3ccc(C#N)c(F)c3)n2)cc(N2CCN(C3COC3)CC2)c1 [Compound 140, 2-fluoro-4-[3-[3-methyl-5-[4-(oxetan-3-yl)piperazin-1-yl]anilino]-1,2,4-triazol-1-yl]benzonitrile]	–	–	1 to 10	1 to 10	–
Cc1cc(Nc2ncn(-c3cccnc3)n2)cc(N2CCN(C3(C)COC3)CC2)c1 [Compound 585, N-[3-methyl-5-[4-(3-methyloxetan-3-yl)piperazin-1-yl]phenyl]-1-(3-pyridyl)-1,2,4-triazol-3-amine]	10 to 100	1 to 10	–	–	–
Cc1cc(Nc2ncn(-c3ncncc3F)n2)cc(N2CCN(C3COC3)CC2)c1 [Compound 291, 1-(5-fluoropyrimidin-4-yl)-N-[3-methyl-5-[4-(oxetan-3-yl)piperazin-1-yl]phenyl]-1,2,4-triazol-3-amine]	–	–	≤ 1	1 to 10	–
Fc1cc(-n2cnc(Nc3cc(C(F)F)cc(N4CCOCC4)c3)n2)ccn1 [Compound 85, N-[3-(difluoromethyl)-5-morpholino-phenyl]-1-(2-fluoro-4-pyridyl)-1,2,4-triazol-3-amine]	–	–	100 to 1000	100 to 1000	–
[2H]C1([2H])N(c2cc(C)cc(Nc3ncn(-c4cc(F)cc(F)c4)n3)c2)C([2H])([2H])C([2H])([2H])N(C2COC2)C1([2H])[2H] [Compound 979, 1-(3,5-difluorophenyl)-N-[3-methyl-5-[2,2,3,3,5,5,6,6-octadeuterio-4-(oxetan-3-yl)piperazin-1-yl]phenyl]-1,2,4-triazol-3-amine]	–	–	–	–	fold induction at 1 µM [4]: 100 to 1000; fold induction at 10 µM [4]: ≤ 1
CCc1cc(Nc2ncn(-c3cccc(F)c3)n2)cc(N2CCN(C3COC3)CC2)c1 [Compound 468, N-[3-ethyl-5-[4-(oxetan-3-yl)piperazin-1-yl]phenyl]-1-(3-fluorophenyl)-1,2,4-triazol-3-amine]	100 to 1000	1 to 10	–	–	–
Cc1cc(NCC2(N3CCCC3)COC2)cc(Nc2ncn(-c3cc(F)cc(F)c3)n2)c1 [Compound 1020, N1-[1-(3,5-difluorophenyl)-1,2,4-triazol-3-yl]-5-methyl-N3-[(3-pyrrolidin-1-yloxetan-3-yl)methyl]benzene-1,3-diamine]	–	–	–	–	fold induction at 1 µM [4]: 10 to 100; fold induction at 10 µM [4]: 1 to 10
Cc1cc(Nc2ncn(-c3ccccc3C)n2)cc(N2CCN(C3COC3)CC2)c1 [Compound 414, N-[3-methyl-5-[4-(oxetan-3-yl)piperazin-1-yl]phenyl]-1-(o-tolyl)-1,2,4-triazol-3-amine]	1 to 10	100 to 1000	–	–	–
Cc1cc(N2CC(N3CCOCC3)C2)cc(Nc2ncn(-c3cc(F)cc(F)c3)n2)c1F [Compound 870, 1-(3,5-difluorophenyl)-N-[2-fluoro-3-methyl-5-(3-morpholinoazetidin-1-yl)phenyl]-1,2,4-triazol-3-amine]	–	–	–	–	fold induction at 1 µM [4]: 1 to 10; fold induction at 10 µM [4]: 1 to 10
Cc1cc(Nc2ncn(-c3cccc(C#N)c3)n2)cc(N2CCCC2)c1 [Compound 281, 3-[3-(3-methyl-5-pyrrolidin-1-yl-anilino)-1,2,4-triazol-1-yl]benzonitrile]	–	–	1 to 10	≤ 1	–
Fc1ccc(-n2cnc(Nc3cc(F)cc(N4CCOCC4)c3)n2)cc1 [Compound 394, N-(3-fluoro-5-morpholino-phenyl)-1-(4-fluorophenyl)-1,2,4-triazol-3-amine]	1 to 10	≤ 1	–	–	–
Fc1cc(Nc2ncn(-c3cc(F)cc(F)c3)n2)cc(N2CCN(C3COC3)CC2)c1 [Compound 112, 1-(3,5-difluorophenyl)-N-[3-fluoro-5-[4-(oxetan-3-yl)piperazin-1-yl]phenyl]-1,2,4-triazol-3-amine]	–	–	1000 to 10000	100 to 1000	–
Cc1cc(Nc2ncn(-c3ccccc3)n2)cc(C2CCCN(C)C2)c1 (stereo not drawn) [Compound 60, N-[3-methyl-5-(1-methyl-3-piperidyl)phenyl]-1-phenyl-1,2,4-triazol-3-amine]	–	–	1000 to 10000	≤ 1	–
CC(C)(C)c1cc(Nc2ncn(-c3ccccc3)n2)cc(N2CCN(C3COC3)CC2)c1 [Compound 376, N-[3-tert-butyl-5-[4-(oxetan-3-yl)piperazin-1-yl]phenyl]-1-phenyl-1,2,4-triazol-3-amine]	–	–	100 to 1000	1 to 10	–
COc1cc(Nc2ncn(-c3cccc(C(F)F)c3)n2)nc(N2CCN(C3COC3)CC2)c1 [Compound 639, N-[1-[3-(difluoromethyl)phenyl]-1,2,4-triazol-3-yl]-4-methoxy-6-[4-(oxetan-3-yl)piperazin-1-yl]pyridin-2-amine]	1 to 10	1 to 10	–	–	–
COc1ccc(-n2cnc(Nc3cc(F)cc(N4CCN(C5COC5)CC4)c3)n2)cc1F [Compound 781, 1-(3-fluoro-4-methoxy-phenyl)-N-[3-fluoro-5-[4-(oxetan-3-yl)piperazin-1-yl]phenyl]-1,2,4-triazol-3-amine]	1 to 10	≤ 1	–	–	–
CCc1cc(Nc2ncn(-c3ccnc(SC)n3)n2)cc(N2CCN(C3COC3)CC2)c1 [Compound 132, N-[3-ethyl-5-[4-(oxetan-3-yl)piperazin-1-yl]phenyl]-1-(2-methylsulfanylpyrimidin-4-yl)-1,2,4-triazol-3-amine]	–	–	1 to 10	1 to 10	–
Cc1cc(Nc2ncn(-c3cc(F)c(F)cc3F)n2)cc(N2CCN(C3COC3)CC2)c1 [Compound 413, N-[3-methyl-5-[4-(oxetan-3-yl)piperazin-1-yl]phenyl]-1-(2,4,5-trifluorophenyl)-1,2,4-triazol-3-amine]	≤ 1	100 to 1000	–	–	–
Cc1cc(Nc2ncn(-c3ccc(F)c(F)c3)n2)cc(N[C@H]2C[C@H](N3CCOCC3)C2)c1 (single isomer, unassigned) [Compound 792, N1-[1-(3,4-difluorophenyl)-1,2,4-triazol-3-yl]-5-methyl-N3-(3-morpholinocyclobutyl)benzene-1,3-diamine]	–	–	–	–	fold induction at 1 µM [4]: 10 to 100; fold induction at 10 µM [4]: ≤ 1
Fc1cc(Nc2ncn(-c3ccc(F)c(F)c3)n2)cc(N2CCOCC2)c1 [Compound 440, 1-(3,4-difluorophenyl)-N-(3-fluoro-5-morpholino-phenyl)-1,2,4-triazol-3-amine]	10 to 100	10 to 100	–	–	–
Cc1cc(Nc2ncn(C)n2)cc(Nc2ncn(-c3ccccc3)n2)c1 [Compound 676, 5-methyl-N3-(1-methyl-1,2,4-triazol-3-yl)-N1-(1-phenyl-1,2,4-triazol-3-yl)benzene-1,3-diamine]	10 to 100	≤ 1	–	–	–
